Values of other authors in patent US11123318B2 (APR APPLIED PHARMA RESEARCH S.A., priority 2017, dated 2021).

Legend:
[1] = not given; remark: listed apart in the source

solubility in water: low solubility
absorption through the gastrointestinal tract ([1]; after oral administration): completely absorbed
time to peak plasma level ([1]; after oral administration): ≤ 1 h
administered dose eliminated as the metabolite by the renal route ([1]; in vivo): About 60%
administered dose excreted in the bile and in the faeces ([1]; in vivo): About 30%
excreted as unchanged substance by the renal route ([1]; in vivo): less than 1%
Structure (SMILES): O=C(O)Cc1ccccc1Nc1c(Cl)cccc1Cl [Diclofenac, 2-(2-[2,6-diclorofenilammino]phenyl) ethanoic acid]
